Measurements reported in US20060009478A1, “Methods for the treatment of back pain” (priority 2003, published 2006).

Experiments:
[1] = Plasma concentrations of oxycodone, oxymorphone, noroxycodone, naltrexone and 6β-naltrexol by solid phase extraction LC-MS/MS
Source text: Patients with moderate-to-severe pain due to osteoarthritis of the hip or knee were randomly assigned to one of four treatment groups as shown in Table 3 of Example 1. Plasma samples were obtained for each patient at the beginning of Weeks 1, 2, 3 and at the end of dosing during Week 3.
For the analysis of linearity and dose proportionality, linear equation coefficients were obtained by averaging patient-specific slopes and intercepts obtained by within-patient least squares regression. This was done to account for the correlation among the repeated measurements due to the patient's contributing data at each dose level. The resulting slopes among treatment groups were compared by one-way analysis of variance (ANOVA), and a one-sample t-test assessed the common slope's difference from zero. A measure of deviation from linearity was constructed as the difference between the concentration at the middle dose versus the average of the concentrations at the lower and higher doses. Due to equal spacing of doses, this measure has expectation zero under the hypothesis of linearity. As above, ANOVA and t-tests were used to assess linearity.
To achieve symmetry, modified log transformations were used.

[2] = test system: patients with moderate to severe chronic low back pain; test: Global assessment of study medication, low back pain study; type: in vivo, human; details: LOCF, ITT
Procedure: Global assessment of study medication was also assessed at clinic visits during the titration and fixed-dose periods. The patient was prompted with the question, “How would you rate the study medication you received during the past week/past two weeks? (Please consider the quality of your pain relief, your side effects, your activity level, your mood and sense of well-being, etc. in this evaluation.)” Responses were selected from poor, fair, good, very good, and excellent.
Global assessment and quality of analgesia ratings were summarized descriptively by treatment group for both the titration and fixed-dose periods. Treatments were compared at each visit in the fixed-dose period, globally and in pairwise fashion, using the Cochran-Mantel-Haenszel row mean scores (CMH-RMS) test, using equally spaced scores.

[3] = test system: patients with moderate to severe chronic low back pain; test: AE days and average AE days of opioid associated AEs, low back pain study; details: ITT population
[4] = (total days with AE)/(days on study drug)
[5] = AE stop date − AE start date + 1

Question: Which results are given for `COc1ccc2c3c1O[C@H]1C(=O)CC[C@@]4(O)[C@@H](C2)N(C)CC[C@]314` [OXY QID, oxycodone]?
Answer: Mean plasma concentration versus dose level over the course of the study ([1]; FIGS. 1 and 2): increased linearly with increasing dose levels; Plasma concentration of oxycodone (ng/mL) versus dose of oxycodone (mg/day): slope of linear equation ([1]; average of patient-specific regressions, slope p<0.001, t-test): 0.4223; Plasma concentration of oxycodone versus dose of oxycodone (mg/day): intercept of linear equation ([1]; average of patient-specific within-patient least squares regressions, all active treatments): 2.28 ng/mL; Global assessment EXCELLENT (4), number of patients ([2]; fixed dose period week 1): 14; Global assessment EXCELLENT (4), percent of patients ([2]; fixed dose period week 1): 6.8%; Global assessment FAIR (1), number of patients ([2]; fixed dose period week 1): 23; Global assessment FAIR (1), percent of patients ([2]; fixed dose period week 1): 11.2%; Global assessment GOOD (2), number of patients ([2]; fixed dose period week 1): 72; Global assessment POOR (0), number of patients ([2]; fixed dose period week 1): 33; Global assessment POOR (0), percent of patients ([2]; fixed dose period week 1): 16.0%; Global assessment VERY GOOD (3), number of patients ([2]; fixed dose period week 1): 63; Global assessment VERY GOOD (3), percent of patients ([2]; fixed dose period week 1): 30.6%; Global assessment EXCELLENT (4), number of patients ([2]; fixed dose period week 2): 21; Global assessment EXCELLENT (4), percent of patients ([2]; fixed dose period week 2): 10.2%; Global assessment FAIR (1), number of patients ([2]; fixed dose period week 2): 22; Global assessment FAIR (1), percent of patients ([2]; fixed dose period week 2): 10.7%; Global assessment GOOD (2), number of patients ([2]; fixed dose period week 2): 79; Global assessment POOR (0), number of patients ([2]; fixed dose period week 2): 33; Global assessment POOR (0), percent of patients ([2]; fixed dose period week 2): 16.0%; Global assessment VERY GOOD (3), number of patients ([2]; fixed dose period week 2): 50; Global assessment EXCELLENT (4), number of patients ([2]; fixed dose period week 4): 20; Global assessment EXCELLENT (4), percent of patients ([2]; fixed dose period week 4): 9.7%; Global assessment FAIR (1), number of patients ([2]; fixed dose period week 4): 26; Global assessment FAIR (1), percent of patients ([2]; fixed dose period week 4): 12.6%; Global assessment GOOD (2), number of patients ([2]; fixed dose period week 4): 69; Global assessment POOR (0), number of patients ([2]; fixed dose period week 4): 37; Global assessment POOR (0), percent of patients ([2]; fixed dose period week 4): 18.0%; Global assessment VERY GOOD (3), number of patients ([2]; fixed dose period week 4): 53; Global assessment EXCELLENT (4), number of patients ([2]; fixed dose period week 6): 23; Global assessment EXCELLENT (4), percent of patients ([2]; fixed dose period week 6): 11.2%; Global assessment FAIR (1), number of patients ([2]; fixed dose period week 6): 28; Global assessment FAIR (1), percent of patients ([2]; fixed dose period week 6): 13.6%; Global assessment GOOD (2), number of patients ([2]; fixed dose period week 6): 73; Global assessment POOR (0), number of patients ([2]; fixed dose period week 6): 38; Global assessment POOR (0), percent of patients ([2]; fixed dose period week 6): 18.4%; Global assessment VERY GOOD (3), number of patients ([2]; fixed dose period week 6): 43; Global assessment VERY GOOD (3), percent of patients ([2]; fixed dose period week 6): 20.9%; Global assessment EXCELLENT (4), number of patients ([2]; fixed dose period week 8): 20; Global assessment EXCELLENT (4), percent of patients ([2]; fixed dose period week 8): 9.7%; Global assessment FAIR (1), number of patients ([2]; fixed dose period week 8): 34; Global assessment FAIR (1), percent of patients ([2]; fixed dose period week 8): 16.5%; Global assessment GOOD (2), number of patients ([2]; fixed dose period week 8): 74; Global assessment POOR (0), number of patients ([2]; fixed dose period week 8): 36; Global assessment POOR (0), percent of patients ([2]; fixed dose period week 8): 17.5%; Global assessment VERY GOOD (3), number of patients ([2]; fixed dose period week 8): 41; Global assessment VERY GOOD (3), percent of patients ([2]; fixed dose period week 8): 19.9%; Global assessment EXCELLENT (4), number of patients ([2]; fixed dose period week 10): 23; Global assessment EXCELLENT (4), percent of patients ([2]; fixed dose period week 10): 11.2%; Global assessment FAIR (1), number of patients ([2]; fixed dose period week 10): 34; Global assessment FAIR (1), percent of patients ([2]; fixed dose period week 10): 16.5%; Global assessment GOOD (2), number of patients ([2]; fixed dose period week 10): 65; Global assessment GOOD (2), percent of patients ([2]; fixed dose period week 10): 31.6%; Global assessment POOR (0), number of patients ([2]; fixed dose period week 10): 38; Global assessment POOR (0), percent of patients ([2]; fixed dose period week 10): 18.4%; Global assessment VERY GOOD (3), number of patients ([2]; fixed dose period week 10): 45; Global assessment VERY GOOD (3), percent of patients ([2]; fixed dose period week 10): 21.8%; Global assessment EXCELLENT (4), number of patients ([2]; fixed dose period week 12): 22; Global assessment EXCELLENT (4), percent of patients ([2]; fixed dose period week 12): 10.7%; Global assessment FAIR (1), number of patients ([2]; fixed dose period week 12): 33; Global assessment FAIR (1), percent of patients ([2]; fixed dose period week 12): 16.0%; Global assessment GOOD (2), number of patients ([2]; fixed dose period week 12): 75; Global assessment POOR (0), number of patients ([2]; fixed dose period week 12): 38; Global assessment POOR (0), percent of patients ([2]; fixed dose period week 12): 18.4%; Global assessment VERY GOOD (3), number of patients ([2]; fixed dose period week 12): 37; Global assessment VERY GOOD (3), percent of patients ([2]; fixed dose period week 12): 18.0%; Average AE day for constipation, maximum [3, 4]: (1.13); Average AE day for constipation, mean [3, 4]: 0.24; Average AE day for constipation, median [3, 4]: 0.05; Average AE day for constipation, minimum [3, 4]: 0.00; Average AE day for dizziness, maximum [3, 4]: 1.73; Average AE day for dizziness, mean (SD) [3, 4]: 0.14 (0.281); Average AE day for dizziness, median [3, 4]: 0.01; Average AE day for dizziness, minimum [3, 4]: 0.00; Average AE day for nausea, maximum [3, 4]: 2.00; Average AE day for nausea, mean (SD) [3, 4]: 0.14 (0.266); Average AE day for nausea, median [3, 4]: 0.03; Average AE day for nausea, minimum [3, 4]: 0.00; Average AE day for pruritus, maximum [3, 4]: 2.00; Average AE day for pruritus, mean (SD) [3, 4]: 0.23 (0.355); Average AE day for pruritus, median [3, 4]: 0.03; Average AE day for pruritus, minimum [3, 4]: 0.00; Average AE day for somnolence, maximum [3, 4]: 2.00; Average AE day for somnolence, mean (SD) [3, 4]: 0.31 (0.392); Average AE day for somnolence, median [3, 4]: 0.11; Average AE day for somnolence, minimum [3, 4]: 0.00; Average AE day for vomiting, maximum [3, 4]: 1.00; Average AE day for vomiting, mean (SD) [3, 4]: 0.02 (0.087); Average AE day for vomiting, median [3, 4]: 0.00; Average AE day for vomiting, minimum [3, 4]: 0.00; AE day for constipation, maximum [3, 5]: 114.00; AE day for constipation, mean (SD) [3, 5]: 17.59 (27.733); AE day for constipation, median [3, 5]: 3.00; AE day for constipation, minimum [3, 5]: 0.00; AE day for dizziness, maximum [3, 5]: 114.00; AE day for dizziness, mean (SD) [3, 5]: 8.59 (18.871); AE day for dizziness, median [3, 5]: 1.00; AE day for dizziness, minimum [3, 5]: 0.00; AE day for nausea, maximum [3, 5]: 118.00; AE day for nausea, mean (SD) [3, 5]: 8.16 (16.511); AE day for nausea, median [3, 5]: 2.00; AE day for nausea, minimum [3, 5]: 0.00; AE day for pruritus, maximum [3, 5]: 124.00; AE day for pruritus, mean (SD) [3, 5]: 15.92 (28.817); AE day for pruritus, median [3, 5]: 2.00; AE day for pruritus, minimum [3, 5]: 0.00; AE day for somnolence, maximum [3, 5]: 123.00; AE day for somnolence, mean (SD) [3, 5]: 21.53 (32.137); AE day for somnolence, median [3, 5]: 6.00; AE day for somnolence, minimum [3, 5]: 0.00; AE day for vomiting, maximum [3, 5]: 18.00; AE day for vomiting, mean (SD) [3, 5]: 1.09 (2.839); AE day for vomiting, median [3, 5]: 0.00; AE day for vomiting, minimum [3, 5]: 0.00
